# Reference: ChEMBL document CHEMBL5346973 (J Med Chem, 2023)
# Where a SMILES comes first, the peptide text is derived from it.
# Molecular target: Nicotinic acetylcholine receptor alpha9/alpha10 (Rattus norvegicus, UniProt P43144+Q9JLB5)
# Assay: Antagonist activity at rat alpha9alpha10 nACh receptor expressed in Xenopus oocyte assessed as inhibition of acetylcholine-induced response at -70 mV holding potential by voltage-clamp based electrophysiological assay
# Assay type: cell-based
# Chain of Nicotinic acetylcholine receptor alpha9/alpha10 (P43144 whole entry): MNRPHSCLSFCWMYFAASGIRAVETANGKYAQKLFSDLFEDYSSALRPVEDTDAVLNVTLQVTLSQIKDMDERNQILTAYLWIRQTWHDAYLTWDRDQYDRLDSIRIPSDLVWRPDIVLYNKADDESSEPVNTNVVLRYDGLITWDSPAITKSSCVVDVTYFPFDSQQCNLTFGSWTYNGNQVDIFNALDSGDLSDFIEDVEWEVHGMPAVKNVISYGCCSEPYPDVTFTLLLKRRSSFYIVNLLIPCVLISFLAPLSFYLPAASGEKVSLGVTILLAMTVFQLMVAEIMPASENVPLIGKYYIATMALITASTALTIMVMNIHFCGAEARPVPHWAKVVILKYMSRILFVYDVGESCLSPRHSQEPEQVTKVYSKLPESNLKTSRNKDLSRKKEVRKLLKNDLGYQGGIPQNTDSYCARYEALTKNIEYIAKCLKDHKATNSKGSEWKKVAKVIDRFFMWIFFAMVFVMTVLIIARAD
# Chain of Nicotinic acetylcholine receptor alpha9/alpha10 (Q9JLB5 whole entry): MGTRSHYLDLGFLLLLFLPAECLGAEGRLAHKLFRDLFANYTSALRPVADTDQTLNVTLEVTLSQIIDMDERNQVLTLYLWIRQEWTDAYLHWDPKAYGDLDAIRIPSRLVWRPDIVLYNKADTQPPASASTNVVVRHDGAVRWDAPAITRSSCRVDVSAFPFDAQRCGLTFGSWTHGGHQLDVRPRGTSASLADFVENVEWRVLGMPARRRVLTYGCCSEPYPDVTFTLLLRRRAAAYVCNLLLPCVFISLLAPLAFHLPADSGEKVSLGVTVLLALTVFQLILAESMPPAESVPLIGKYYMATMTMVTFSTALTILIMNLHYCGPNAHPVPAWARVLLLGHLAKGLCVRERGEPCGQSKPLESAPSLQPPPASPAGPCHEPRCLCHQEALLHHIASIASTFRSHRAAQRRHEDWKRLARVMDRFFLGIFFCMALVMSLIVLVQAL
row,SMILES,IC50
1,CC[C@H](C)[C@@H]1NC(=O)[C@H](CCCNC(=N)N)NC(=O)[C@H](CCCNC(=N)N)NC(=O)[C@@H](NC(=O)[C@H](Cc2ccc(O)cc2)NC(=O)[C@H](CCCNC(=N)N)NC(=O)[C@H](C)NC(=O)[C@H](C)NC(=O)[C@H](CCCNC(=N)N)NC(=O)[C@H](CC(=O)O)NC(=O)[C@H](Cc2ccc(O)cc2)NC(=O)[C@@H]2CCCN2C(=O)[C@H](CO)NC(=O)[C@H](CCCNC(=N)N)NC(=O)[C@@H]2CSSC[C@H](NC(=O)[C@@H](N)[C@@H](C)O)C(=O)N[C@@H](CCCNC(=N)N)C(=O)N[C@@H](CO)C(=O)N[C@@H](CO)C(=O)NCC(=O)N[C@@H](CCCNC(=N)N)C(=O)N[C@@H](Cc3ccc(O)cc3)C(=O)N2)CSSC[C@@H](C(=O)N[C@H](C(=O)O)C(C)C)NC(=O)[C@H](C)NC(=O)[C@H](CC(=O)O)NC(=O)[C@H]([C@@H](C)O)NC1=O,130 nM
2,CC[C@H](C)[C@@H]1NC(=O)[C@H](CCCNC(=N)N)NC(=O)[C@H](CCCNC(=N)N)NC(=O)[C@@H](NC(=O)[C@H](Cc2ccc(O)cc2)NC(=O)[C@H](C)NC(=O)[C@H](CCCNC(=N)N)NC(=O)[C@H](C)NC(=O)[C@H](CCCNC(=N)N)NC(=O)[C@H](CC(=O)O)NC(=O)[C@H](Cc2ccc(O)cc2)NC(=O)[C@@H]2CCCN2C(=O)[C@H](CO)NC(=O)[C@H](CCCNC(=N)N)NC(=O)[C@@H]2CSSC[C@H](NC(=O)[C@@H](N)[C@@H](C)O)C(=O)N[C@@H](CCCNC(=N)N)C(=O)N[C@@H](CO)C(=O)N[C@@H](CO)C(=O)NCC(=O)N[C@@H](CCCNC(=N)N)C(=O)N[C@@H](Cc3ccc(O)cc3)C(=O)N2)CSSC[C@@H](C(=O)N[C@H](C(=O)O)C(C)C)NC(=O)[C@H](C)NC(=O)[C@H](CC(=O)O)NC(=O)[C@H]([C@@H](C)O)NC1=O,410 nM
3,CC[C@H](C)[C@@H]1NC(=O)[C@H](C)NC(=O)[C@H](C)NC(=O)[C@@H](NC(=O)[C@H](Cc2ccc(O)cc2)NC(=O)[C@H](CCCNC(=N)N)NC(=O)[C@H](CCCNC(=N)N)NC(=O)[C@H](CCCNC(=N)N)NC(=O)[C@H](CCCNC(=N)N)NC(=O)[C@H](CC(=O)O)NC(=O)[C@H](Cc2ccc(O)cc2)NC(=O)[C@@H]2CCCN2C(=O)[C@H](CO)NC(=O)[C@H](CCCNC(=N)N)NC(=O)[C@@H]2CSSC[C@H](NC(=O)[C@@H](N)[C@@H](C)O)C(=O)N[C@@H](CCCNC(=N)N)C(=O)N[C@@H](CO)C(=O)N[C@@H](CO)C(=O)NCC(=O)N[C@@H](CCCNC(=N)N)C(=O)N[C@@H](Cc3ccc(O)cc3)C(=O)N2)CSSC[C@@H](C(=O)N[C@H](C(=O)O)C(C)C)NC(=O)[C@H](C)NC(=O)[C@H](CC(=O)O)NC(=O)[C@H]([C@@H](C)O)NC1=O,180 nM
4,"CC[C@H](C)[C@@H]1NC(=O)[C@H](CCCNC(=N)N)NC(=O)[C@H](CCCNC(=N)N)NC(=O)[C@@H](NC(=O)[C@H](Cc2ccc(O)cc2)NC(=O)[C@H](CCCNC(=N)N)NC(=O)[C@H](CCCNC(=N)N)NC(=O)[C@H](CCCNC(=N)N)NC(=O)[C@H](CCCNC(=N)N)NC(=O)[C@H](CC(=O)O)NC(=O)[C@H](Cc2ccc(O)cc2)NC(=O)[C@@H]2CCCN2C(=O)[C@H](CO)NC(=O)[C@H](C)NC(=O)[C@@H]2CSSC[C@H](NC(=O)[C@@H](N)[C@@H](C)O)C(=O)N[C@@H](C)C(=O)N[C@@H](CO)C(=O)N[C@@H](CO)C(=O)NCC(=O)N[C@@H](CCCNC(=N)N)C(=O)N[C@@H](Cc3ccc(O)cc3)C(=O)N2)CSSC[C@@H](C(=O)N[C@H](C(=O)O)C(C)C)NC(=O)[C@H](C)NC(=O)[C@H](CC(=O)O)NC(=O)[C@H]([C@@H](C)O)NC1=O (HELM PEPTIDE1{T.C.A.S.S.G.R.Y.C.A.S.P.Y.D.R.R.R.R.Y.C.R.R.I.T.D.A.C.V}$PEPTIDE1,PEPTIDE1,2:R3-9:R3|PEPTIDE1,PEPTIDE1,20:R3-27:R3$$$V2.0)",590 nM
5,"CC[C@H](C)[C@@H]1NC(=O)[C@H](CCCNC(=N)N)NC(=O)[C@H](CCCNC(=N)N)NC(=O)[C@@H](NC(=O)[C@H](Cc2ccc(O)cc2)NC(=O)[C@H](CCCNC(=N)N)NC(=O)[C@H](CCCNC(=N)N)NC(=O)[C@H](CCCNC(=N)N)NC(=O)[C@H](CCCNC(=N)N)NC(=O)[C@H](CC(=O)O)NC(=O)[C@H](Cc2ccc(O)cc2)NC(=O)[C@@H]2CCCN2C(=O)[C@H](CO)NC(=O)[C@H](C)NC(=O)[C@@H]2CSSC[C@H](NC(=O)[C@@H](N)[C@@H](C)O)C(=O)N[C@@H](CCCNC(=N)N)C(=O)N[C@@H](CO)C(=O)N[C@@H](CO)C(=O)NCC(=O)N[C@@H](C)C(=O)N[C@@H](Cc3ccc(O)cc3)C(=O)N2)CSSC[C@@H](C(=O)N[C@H](C(=O)O)C(C)C)NC(=O)[C@H](C)NC(=O)[C@H](CC(=O)O)NC(=O)[C@H]([C@@H](C)O)NC1=O (HELM PEPTIDE1{T.C.R.S.S.G.A.Y.C.A.S.P.Y.D.R.R.R.R.Y.C.R.R.I.T.D.A.C.V}$PEPTIDE1,PEPTIDE1,2:R3-9:R3|PEPTIDE1,PEPTIDE1,20:R3-27:R3$$$V2.0)",440 nM
6,CC[C@H](C)[C@@H]1NC(=O)[C@H](CCCNC(=N)N)NC(=O)[C@H](CCCNC(=N)N)NC(=O)[C@@H](NC(=O)[C@H](Cc2ccc(O)cc2)NC(=O)[C@H](CCCNC(=N)N)NC(=O)[C@H](C)NC(=O)[C@H](CCCNC(=N)N)NC(=O)[C@H](C)NC(=O)[C@H](CC(=O)O)NC(=O)[C@H](Cc2ccc(O)cc2)NC(=O)[C@@H]2CCCN2C(=O)[C@H](CO)NC(=O)[C@H](CCCNC(=N)N)NC(=O)[C@@H]2CSSC[C@H](NC(=O)[C@@H](N)[C@@H](C)O)C(=O)N[C@@H](CCCNC(=N)N)C(=O)N[C@@H](CO)C(=O)N[C@@H](CO)C(=O)NCC(=O)N[C@@H](CCCNC(=N)N)C(=O)N[C@@H](Cc3ccc(O)cc3)C(=O)N2)CSSC[C@@H](C(=O)N[C@H](C(=O)O)C(C)C)NC(=O)[C@H](C)NC(=O)[C@H](CC(=O)O)NC(=O)[C@H]([C@@H](C)O)NC1=O,230 nM
7,CC[C@H](C)[C@@H]1NC(=O)[C@H](CCCNC(=N)N)NC(=O)[C@H](CCCNC(=N)N)NC(=O)[C@@H](NC(=O)[C@H](Cc2ccc(O)cc2)NC(=O)[C@H](C)NC(=O)[C@H](CCCNC(=N)N)NC(=O)[C@H](CCCNC(=N)N)NC(=O)[C@H](C)NC(=O)[C@H](CC(=O)O)NC(=O)[C@H](Cc2ccc(O)cc2)NC(=O)[C@@H]2CCCN2C(=O)[C@H](CO)NC(=O)[C@H](CCCNC(=N)N)NC(=O)[C@@H]2CSSC[C@H](NC(=O)[C@@H](N)[C@@H](C)O)C(=O)N[C@@H](CCCNC(=N)N)C(=O)N[C@@H](CO)C(=O)N[C@@H](CO)C(=O)NCC(=O)N[C@@H](CCCNC(=N)N)C(=O)N[C@@H](Cc3ccc(O)cc3)C(=O)N2)CSSC[C@@H](C(=O)N[C@H](C(=O)O)C(C)C)NC(=O)[C@H](C)NC(=O)[C@H](CC(=O)O)NC(=O)[C@H]([C@@H](C)O)NC1=O,350 nM
8,CC(C)C[C@H](NC(=O)[C@H](CCCCN)NC(=O)[C@H](CC(N)=O)NC(=O)[C@@H]1CCCN1C(=O)[C@H](CCC(N)=O)NC(=O)[C@H](C)NC(=O)CNC(=O)[C@H](CO)NC(=O)[C@H](CCCCN)NC(=O)[C@H](CCC(=O)O)NC(=O)[C@H](CC(C)C)NC(=O)[C@H](CS)NC(=O)[C@@H](CCCNC(=N)N)NC(=O)[C@@H](N)C(C)C)C(=O)N[C@@H](Cc1ccccc1)C(=O)N[C@@H](CCCNC(=N)N)C(=O)N1CCC[C@H]1C(=O)N1CCC[C@H]1C(=O)N[C@@H](CS)C(=O)N[C@@H](CS)C(=O)N[C@@H](CCC(N)=O)C(=O)N[C@@H](CCCCN)C(=O)NCC(=O)N1CCC[C@H]1C(=O)N[C@@H](CO)C(=O)N[C@@H](Cc1ccccc1)C(=O)N[C@@H](C)C(=O)N[C@@H](CCCNC(=N)N)C(=O)N[C@@H](Cc1cnc[nH]1)C(=O)N[C@@H](CO)C(=O)N[C@@H](CCCNC(=N)N)C(=O)N[C@@H](CS)C(=O)N[C@H](C(=O)N[C@@H](Cc1ccc(O)cc1)C(=O)N[C@@H](Cc1ccc(O)cc1)C(=O)N[C@H](C(=O)N[C@@H](CCC(N)=O)C(=O)N[C@@H](CO)C(=O)N[C@@H](CCCNC(=N)N)C(=O)N[C@@H](CCC(=O)O)C(=O)O)[C@@H](C)O)C(C)C,1200 nM
9,CC[C@H](C)[C@@H]1NC(=O)[C@H](CCCNC(=N)N)NC(=O)[C@H](CCCNC(=N)N)NC(=O)[C@@H](NC(=O)[C@H](Cc2ccc(O)cc2)NC(=O)[C@H](CCCNC(=N)N)NC(=O)[C@H](CCCNC(=N)N)NC(=O)[C@H](C)NC(=O)[C@H](C)NC(=O)[C@H](CC(=O)O)NC(=O)[C@H](Cc2ccc(O)cc2)NC(=O)[C@@H]2CCCN2C(=O)[C@H](CO)NC(=O)[C@H](CCCNC(=N)N)NC(=O)[C@@H]2CSSC[C@H](NC(=O)[C@@H](N)[C@@H](C)O)C(=O)N[C@@H](CCCNC(=N)N)C(=O)N[C@@H](CO)C(=O)N[C@@H](CO)C(=O)NCC(=O)N[C@@H](CCCNC(=N)N)C(=O)N[C@@H](Cc3ccc(O)cc3)C(=O)N2)CSSC[C@@H](C(=O)N[C@H](C(=O)O)C(C)C)NC(=O)[C@H](C)NC(=O)[C@H](CC(=O)O)NC(=O)[C@H]([C@@H](C)O)NC1=O,260 nM
10,CC[C@H](C)[C@@H]1NC(=O)[C@H](CCCNC(=N)N)NC(=O)[C@H](CCCNC(=N)N)NC(=O)[C@@H](NC(=O)[C@H](Cc2ccc(O)cc2)NC(=O)[C@H](C)NC(=O)[C@H](C)NC(=O)[C@H](CCCNC(=N)N)NC(=O)[C@H](CCCNC(=N)N)NC(=O)[C@H](CC(=O)O)NC(=O)[C@H](Cc2ccc(O)cc2)NC(=O)[C@@H]2CCCN2C(=O)[C@H](CO)NC(=O)[C@H](CCCNC(=N)N)NC(=O)[C@@H]2CSSC[C@H](NC(=O)[C@@H](N)[C@@H](C)O)C(=O)N[C@@H](CCCNC(=N)N)C(=O)N[C@@H](CO)C(=O)N[C@@H](CO)C(=O)NCC(=O)N[C@@H](CCCNC(=N)N)C(=O)N[C@@H](Cc3ccc(O)cc3)C(=O)N2)CSSC[C@@H](C(=O)N[C@H](C(=O)O)C(C)C)NC(=O)[C@H](C)NC(=O)[C@H](CC(=O)O)NC(=O)[C@H]([C@@H](C)O)NC1=O,230 nM
11,"CC[C@H](C)[C@@H]1NC(=O)[C@H](CCCNC(=N)N)NC(=O)[C@H](CCCNC(=N)N)NC(=O)[C@@H](NC(=O)[C@H](Cc2ccc(O)cc2)NC(=O)[C@H](CCCNC(=N)N)NC(=O)[C@H](CCCNC(=N)N)NC(=O)[C@H](CCCNC(=N)N)NC(=O)[C@H](CCCNC(=N)N)NC(=O)[C@H](CC(=O)O)NC(=O)[C@H](Cc2ccc(O)cc2)NC(=O)[C@@H]2CCCN2C(=O)[C@H](CO)NC(=O)[C@H](CCCNC(=N)N)NC(=O)[C@@H]2CSSC[C@H](NC(=O)[C@@H](N)[C@@H](C)O)C(=O)N[C@@H](C)C(=O)N[C@@H](CO)C(=O)N[C@@H](CO)C(=O)NCC(=O)N[C@@H](C)C(=O)N[C@@H](Cc3ccc(O)cc3)C(=O)N2)CSSC[C@@H](C(=O)N[C@H](C(=O)O)C(C)C)NC(=O)[C@H](C)NC(=O)[C@H](CC(=O)O)NC(=O)[C@H]([C@@H](C)O)NC1=O (HELM PEPTIDE1{T.C.A.S.S.G.A.Y.C.R.S.P.Y.D.R.R.R.R.Y.C.R.R.I.T.D.A.C.V}$PEPTIDE1,PEPTIDE1,2:R3-9:R3|PEPTIDE1,PEPTIDE1,20:R3-27:R3$$$V2.0)",370 nM
